BindingDB's records for patent US20260049068 (Bristol Myers Squibb, 2026)
pIC50: −log10 of the molar value.

Columns and labels:
[1] = target: T1, Diacylglycerol kinase alpha [9-727] (Homo sapiens, UniProt P23743); assay: In Vitro DGK Inhibition Assay
T1 construct: 9-727
Description: (§1) The DGKα (Full Length and Near Full Length) ADP Glo assays were performed using an extruded liposome prep at either 5% DAG or 10% DAG. The Enzymatic reactions were carried out in 50 mM MOPS pH 7.5, 100 mM NaCl, 10 mM MgCl2, 1 μM CaCl2, and 1 mM DTT (assay buffer). The lipid substrate concentrations were 1.9 mM PS, either 0.25 mM DAG (5% liposome prep) or 0.5 mM DAG (10% liposome prep), and 2.7 mM PC for the extruded liposome reactions. […] A 5 mL enzyme/substrate (substrate being the 5× or 10× liposome preparation) solution at 2× final reaction concentrations was prepared by combining 5 ml of the extruded liposome preparation with 10 nM (2× final) DGKα(Near Full Length) or DGKα(Full Length) prepared as described below) and incubated at room temperature for 10 minutes. Next, 1 μL of the 2× enzyme/substrate solution was added to wells containing the test compound and reactions were initiated with the addition of 1 μL 300 uM ATP. Substrate only was added to DMSO only wells for background measurements. The reactions were allowed to proceed for 1 hr, after which 2 μL Glo Reagent (Promega V9101) was added and incubated for 40 minutes. Next, 4 μL Kinase Detection Reagent was added and incubated for 30 minutes. Luminescence was recorded using an EnVision microplate reader. […] The compounds were evaluated at 11 concentrations to determine IC50.

[2] = target: Diacylglycerol kinase alpha (Homo sapiens, UniProt P23743); assay: In Vitro DGK Inhibition Assay
Sequence of Diacylglycerol kinase alpha (P23743 whole entry): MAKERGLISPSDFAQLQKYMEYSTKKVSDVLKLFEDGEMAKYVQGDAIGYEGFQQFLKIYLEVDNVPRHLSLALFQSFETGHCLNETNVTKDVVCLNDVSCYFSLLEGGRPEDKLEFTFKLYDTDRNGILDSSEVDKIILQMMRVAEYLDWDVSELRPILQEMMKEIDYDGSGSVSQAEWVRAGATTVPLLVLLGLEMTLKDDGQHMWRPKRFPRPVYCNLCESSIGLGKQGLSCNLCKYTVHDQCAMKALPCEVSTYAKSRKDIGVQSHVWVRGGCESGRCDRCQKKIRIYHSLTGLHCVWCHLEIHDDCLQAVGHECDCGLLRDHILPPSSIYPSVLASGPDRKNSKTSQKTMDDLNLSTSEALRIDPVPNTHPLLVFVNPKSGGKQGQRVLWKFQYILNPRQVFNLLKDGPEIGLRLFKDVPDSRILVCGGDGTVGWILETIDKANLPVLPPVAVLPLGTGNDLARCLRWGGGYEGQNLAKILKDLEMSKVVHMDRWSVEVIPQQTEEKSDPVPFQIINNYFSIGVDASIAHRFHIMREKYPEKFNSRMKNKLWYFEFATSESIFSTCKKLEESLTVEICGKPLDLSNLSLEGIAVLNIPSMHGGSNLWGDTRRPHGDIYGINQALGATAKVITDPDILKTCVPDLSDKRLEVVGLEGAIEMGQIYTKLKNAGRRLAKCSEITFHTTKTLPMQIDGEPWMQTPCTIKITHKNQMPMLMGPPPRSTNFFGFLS
Description: as §1

T1 sequence (P23743 whole entry): as above

pIC50 [1] | pIC50 [2] | Compound
5.92 | 5.57 | CC1CCC(N(C)Cc2nnnn2-c2cccc([N+](=O)[O-])c2)CC1 (centres undefined) [US20260049068, Example 2]
5.80 | 5.92 | C=CCN(Cc1nnnn1-c1ccc(Cl)c(C#N)n1)C1CCCCC1 [US20260049068, Example 17]
6.32 |  | CN(Cc1nnnn1-c1cc(C#N)cc([N+](=O)[O-])c1)C1CCCCC1 [US20260049068, Example 27]
6.92 | 7.22 | CN(Cc1nnnn1-c1ccc(Cl)c([N+](=O)[O-])c1)C1CCCCC1 [US20260049068, Example 28]
 | 4.82 | CN(Cc1nnnn1-c1cccc([N+](=O)[O-])c1)C1CCOCC1 [US20260049068, Example 38]
 | 4.46 | CN(Cc1nnnn1-c1cccc([N+](=O)[O-])c1)C1CCN(C(=O)OC(C)(C)C)C1 (centres undefined) [US20260049068, Example 39]
 | 4.26 | CN(Cc1nnnn1-c1cccc([N+](=O)[O-])c1)C1CCOC1 (centres undefined) [US20260049068, Example 40]
 | 4.49 | CC(C)CN(C)Cc1nnnn1-c1cccc([N+](=O)[O-])c1 [US20260049068, Example 42]
 | 3.74 | CN(Cc1nnnn1-c1cccc([N+](=O)[O-])c1)C1CC1 [US20260049068, Example 44]
 | 3.92 | N#Cc1nc(-n2nnnc2CN(CC(O)c2ccccc2)C2CCCCC2)ccc1Cl (centres undefined) [US20260049068, Example 57]
 | 4.22 | N#Cc1nc(-n2nnnc2CN(Cc2ccccc2)[C@@H]2CCCC[C@H]2O)ccc1Cl [US20260049068, Example 58]
